pIC50: −log10 of the molar value.
Columns and labels:
Type in all cases: cell-based
[1] = test system: HSV-1 (herpes simplex virus type 1); assay: HSV-1 (strain schooler) plaque reduction in WI-38 cell monolayers; conditions: Human alphaherpesvirus 1, 96 h; WI-38 cells; at least 50% plaque reduction; 4 days at 37° C.; read-out: ID50 HSV-1 (strain schooler)
[2] = test system: HSV-2 (herpes simplex virus type 2); assay: HSV-2 (strain 186) plaque reduction in WI-38 cell monolayers; conditions: Human alphaherpesvirus 2, 96 h; WI-38 cells; at least 50% plaque reduction; 4 days at 37° C.; read-out: ID50 HSV-2 (strain 186)
[3] = test system: VZV (varicella-zoster virus), strain Ellen; assay: VZV (strain Ellen) plaque reduction in WI-38 cell monolayers; conditions: Human alphaherpesvirus 3; WI-38 cells; at least 50% plaque reduction; 5-7 days at 37° C.; read-out: ID50 VZV (strain Ellen)
[4] = test system: HCMV (human cytomegalovirus); assay: HCMV (strain AD169) plaque reduction in WI-38 cell monolayers; conditions: Human betaherpesvirus 5, AD169; WI-38 cells; at least 50% plaque reduction; 5-7 days at 37° C.; read-out: ID50 HCMV (strain AD169)
VV (vaccinia virus) = assay: microbe, parasite or virus in culture; conditions: Orthopoxvirus vaccinia, WI-38, 96 h, read-out: ID50 VV (strain CL)
[5] = test system: VZV (varicella-zoster virus), strain Oka; assay: VZV (strain Oka) plaque reduction in WI-38 cell monolayers; conditions: Human alphaherpesvirus 3, WI-38, read-out: ID50 VZV (strain Oka)

Nc1nc2c(ncn2[C@@H]2CO[C@H](CO)[C@H]2CO)c(=O)[nH]1 [Example 1, [3S-(3α,4β,5α)]-2-Amino-1,9-dihydro-9-[tetrahydro-4,5-bis(hydroxymethyl)-3-furanyl]-6H-purin-6-one]
pIC50 [1]: 5.15
pIC50 [2]: 5.74
pIC50 [3]: 4.44 to 4.74
pIC50 [4]: 3.45
pIC50 (VV (vaccinia virus)): < 3.45

Nc1ncnc2c1ncn2[C@@H]1CO[C@H](CO)[C@H]1CO [Example 2, [3S-(3α,4β,5α)]-9-[Tetrahydro-4,5-bis(hydroxymethyl)-3-furanyl]-9H-purin-6-amine]
pIC50 [1]: 5.12 to 5.42
pIC50 [2]: 5.12 to 5.42
pIC50 [3]: 5.42 to 5.72
pIC50 [4]: 5.42 to 5.72
pIC50 (VV (vaccinia virus)): 4.72 to 5.10

Cc1cn([C@@H]2CO[C@H](CO)[C@H]2CO)c(=O)[nH]c1=O [Example 3, [3S-(3α,4β,5α)]-5-Methyl-1-[tetrahydro-4,5-bis(hydroxymethyl)-3-furanyl]-2,4(1H,3H)-pyrimidinedione]
pIC50 [1]: 5.40 to 5.70
pIC50 [2]: 3.41 to 3.71
pIC50 [3]: 4.72 to 5.10
pIC50 [4]: < 3.41

O=c1ccn([C@@H]2CO[C@H](CO)[C@H]2CO)c(=O)[nH]1 [Example 4, [3S-(3α,4β,5α)]-1-[Tetrahydro-4,5-bis(hydroxymethyl)-3-furanyl]-2,4(1H,3H)-pyrimidinedione]
pIC50 [1]: < 3.38
pIC50 [2]: < 3.38
pIC50 [3]: 3.99 to 4.39
pIC50 [4]: < 3.38

O=c1[nH]c(=O)n([C@@H]2CO[C@H](CO)[C@H]2CO)cc1I [Example 5, [3S-(3α,4β,5α)]-5-Iodo-1-[tetrahydro-4,5-bis(hydroxymethyl)-3-furanyl]-2,4(1H,3H)-pyrimidinedione]
pIC50 [1]: 3.87 to 4.17
pIC50 [2]: < 3.57
pIC50 [3]: 4.17 to 4.57
pIC50 [4]: < 3.57

Nc1ccn([C@@H]2CO[C@H](CO)[C@H]2CO)c(=O)n1 [Example 6, [3S-(3α,4β,5α)]-4-Amino-1-[tetrahydro-4,5-bis(hydroxymethyl)-3-furanyl]-2(1H)-pyrimidinone]
pIC50 [1]: 4.39 to 4.68
pIC50 [2]: 4.39 to 4.68
pIC50 [3]: 6.40 to 6.70
pIC50 [4]: 3.98 to 4.39
pIC50 (VV (vaccinia virus)): 3.38 to 4.39

O=c1[nH]c(=O)n([C@@H]2CO[C@H](CO)[C@H]2CO)cc1/C=C/Br [Example 7, [3S-(3α(E),4β,5α)]-5-(2-Bromoethenyl)-1-[tetrahydro-4,5-bis(hydroxymethyl)-3-furanyl]-2,4(1H,3H)-pyrimidinedione]
pIC50 [1]: 5.55 to 5.85
pIC50 [2]: < 3.54
pIC50 [3]: < 3.54
pIC50 [5]: 5.85
pIC50 [4]: < 3.54

Cc1cn([C@@H]2CO[C@H](CO)[C@H]2CO)c(=O)nc1N [Example 8, [3S-(3α,4β,5α)]-4-Amino-5-methyl-1-[tetrahydro-4,5-bis(hydroxymethyl)-3-furanyl]-2(1H)-pyrimidinone]
pIC50 [1]: 3.53
pIC50 [2]: 3.41
pIC50 [3]: 4.40
pIC50 [4]: < 3.41

Nc1nc(=O)n([C@@H]2CO[C@H](CO)[C@H]2CO)cc1I [Example 9, [3S-(3α,4β ,5α)]-4-Amino-5-iodo-1-[tetrahydro-4,5-bis(hydroxymethyl)-3-furanyl]-2(1H)-pyrimidinone]
pIC50 [1]: 3.87 to 4.17
pIC50 [2]: < 3.57
pIC50 [3]: 4.85 to 5.30
pIC50 [4]: < 3.57
